System: Ba/F3 cells expressing empty vector (GFP), CALR wild type or CALR del52
Assay: Sensitivity of Ba/F3 cells to the inhibitor SAR302503 (CellTiter-Glo cell viability)
Format: cell-based, murine
Conditions: Ba/F3 cells expressing CALR wild type vs CALR del52; 48 hours; 10 ng/ml interleukin-3; dilution series, highest concentration 40 μM; listed as JAK2 kinase inhibitor
Description: Ba/F3 cells expressing the empty vector (GFP), CALR wild type (CALR wt-GFP) or CALR mutant (CALR del52-GFP) were analyzed by defining cell viability after 48 hours in presence of decreasing SAR302503. For relative viability, relative luminescence units were normalized to the DMSO control. Error bars represent standard error of the mean.
To define the sensitivity to the inhibitor SAR302503 (Sanofi), Ba/F3 cells were plated in 96-well plates at 25000 cells per well in triplicates on a dilution series of SAR302503 (highest concentration 40 μM) and in presence of 10 ng/ml interleukin-3. After 48 hours cell viability was determined by the CellTiter-Glo® Luminescent Cell Viability Assay (Promega).

Structure (SMILES): Cc1cnc(Nc2ccc(OCCN3CCCC3)cc2)nc1Nc1cccc(S(=O)(=O)NC(C)(C)C)c1 [SAR302503]
- sensitivity of cells to SAR302503 (cell viability): suppressed equally

Reference: US10344335B2, “Mutant calreticulin for the diagnosis of myeloid malignancies” (CEMM—FORSCHUNGSZENTRUM FUER MOLEKULARE MEDIZIN GMBH, priority 2013, dated 2019)
